{
  "source": "patent US20220249665A1",
  "about": "“TRANSFECTION METHOD” (Takeda Pharmaceutical Company Limited, priority 2019, published 2022)",
  "tested_on": "C2C12 cells",
  "test": "Introduction of low-molecular-weight compound (FITC) into skeletal muscle cell",
  "assay_type": "cell-based",
  "protocol": "C2C12 cells (3×10^4 cells, 0.5 mL) in 10% FBS-containing DMEM medium were seeded in 48 wells. After removing the medium, 0.5 ml of ultrafine bubble/DMEM medium containing 0.38 μg of FITC was added. An ultrafine bubble/DMEM medium prepared by adding 1 L of the ultrafine bubble aqueous solution prepared in Reference Example 1 to a DMEM medium powder, and adding 2 g/L NaHCO3 and 10% FBS was used as a transfection medium.\nAfter adding the FITC-containing medium, ultrasound exposure was performed for 10 sec at a frequency of 1 MHz and output intensities of 100, 250, 500 mW/cm^2 and using an ultrasound generator (NEPAGENE). After ultrasound exposure, the cells were cultured for 2 hr, then the transfection medium was removed, and the cells were cultured in DMEM medium (culture medium) for 48 hr.\nAfter completion of the culture, the cells were collected, completely lysed with 0.5 mL of cell lysis solution, and the fluorescent intensity of FITC was measured with a spectrofluoro-photometer. The amount of FITC uptake was evaluated as a relative amount by proportional calculation with the measured value of Control (ultrafine bubbles alone) as 1.",
  "data": [
    {"molecule": "O=C1OC2(c3ccc(O)cc3Oc3cc(O)ccc32)c2ccc(N=C=S)cc21", "note": "[FITC]", "values": [
      {"measurement": "introduction efficiency of FITC into the cell", "setting": "ultrafine bubbles (negatively-charged, C3F8) combined with ultrasound 1 MHz, 10 sec, C2C12, 0.38 μg FITC", "result": "remarkably increased"},
      {"measurement": "introduction efficiency of FITC", "setting": "ultrafine bubbles + ultrasound 100 mW/cm^2", "result": "increasing tendency was observed"},
      {"measurement": "introduction efficiency of FITC", "setting": "ultrafine bubbles + ultrasound 250 mW/cm^2", "result": "particularly superior introduction efficiency"},
      {"measurement": "introduction efficiency of FITC", "setting": "ultrafine bubbles + ultrasound 250 or 500 mW/cm^2", "result": "increased significantly"}
    ]}
  ]
}
